The text below walks through data of patent US7232812B2, “Substituted azetidine compounds, their preparation and use as medicaments” (Laboratorios de Dr. Esteve S.A., priority 2004, dated 2007).

Assay type in all cases: in vivo
Experiment [1] concerns PGE2 production. The experiment in a line: PGE2 production in rat gastric mucosa. The note with it: rats, oral route, read-out: PGE2 gastric mucose ED50. On the procedure:
(§1) VI: PGE2 Production in Rat Inflammatory Exudate and Gastric Mucosa
(§2) The PGE2 production in rat inflammatory exudate and gastric mucosa is carried out as described in the publication of O Tofanetti et al., “Effect of nimesulide on cyclo-oxygenase activity in rat gastric mucosa and inflammatory exudate”, Med Sci Res 17, 745–746 (1989). The respective part of the description is hereby incorporated by reference and forms part of the present disclosure.
(§3) For this text 6 male wistar rats (Interfauna-St Feliú de Codines, Barcelona) of approximately 200 g (each approximately 6 weeks of age) are used. The compounds to be tested are administered via oral route in gum Arabic at 5% (weight/volume) at a rate of 10 ml/kg.
(§4) One hour after administration of the compounds and under halothane anaesthesia, each rat is implanted subcutaneously in the interescapular area a 40×15×5 mm polyester sponge, soaked in a 0.5% suspension of carrageenan. […]
(§5) The rats's stomachs are removed and the gastric mucosa is detached from the underlying layers and by means of a 10 mm diameter die, mucosa samples from an area between the gastric corpus and pyloric antrum are taken. […] PGE2 concentrations from the inflammatory exudates and the gastric mucosa are determined by means of immunoassay reagents of Cayman Chemical kit, Ann Arbor, Mich., U.S.A. (Catalogue number: 514010) according to the manufacturer's instructions.

In experiment [2] the test system is rats. The experiment in a line: Test for activity against edema in rats (carrageenin paw). The note with it: Rattus norvegicus, oral route. On the procedure: IV. Test for Activity Against Edema in Rats
The test for activity against edema is carried out as described in the publication of Winter et al., Proc. Soc. Exp. Biol. Med. 111, 544–547, (1962). The respective part of the description is hereby incorporated by reference and forms part of the present disclosure.
At the beginning of each experimental session the rats are deprived of food, and kept in cages within groups of 5 animals, the cages being fitted with a grating on the floor to prevent coprophagy. After a period of 24 hours without food, the animals are marked in a suitable way, weighed and hydrated via oral administration of 30 ml/kg body weight of tap water. Half an hour after the hydratisation, the compounds to be tested are administered via oral route, in an amount of 10 ml/kg body weight as a suspension in gum arabic at 5% (weigh/volume). One hour after administration of the compounds the animals receive 0.1 ml of the inflammation causing agent (carrageenin 1% weight/volume, in sterile solution), injected via subplantar route into the right hind paw of the rats. Immediately after the carrageenin injection the volume of the injected paw is determined using a plethysmometer. The readings are expressed in ml. Readings of the volume of the paw are taken every hour after administration of the carrageenin for 7 hours.

The subject of experiment [3] is rats. In words: Analgesia test in rats (carrageenan, thermal stimulus). Conditions: Rattus norvegicus, oral route, 2 hours after administration, read-out: ED50 analgesic activity. On the procedure:
III: Analgesia Test in Rats
The inventive compounds are tested for analgesic activity as described above is carried out as described in the publication of K. Hargreaves et al., Pain, 32, 77–88, (1988). The respective part of the description is hereby incorporated by reference and forms part of the disclosure.
The rats are transferred to the experimentation laboratory, where they remain in groups of 5, in makrolon cages with a barred floor to avoid coprophagy. At the beginning of the experiment, water and food were removed, and animals were adequately weighed and marked.
Each rat receives via subplantar injection 0.1 ml of sterile saline solution into the left hind paw, followed by 0.1 ml of a 2% (weight/volume) carrageenan suspension in sterile saline solution into the right hind paw.
Two hours after the subplantar injections of carrageenan and vehicle, each rat receives by oral route the compounds to be tested, suspended in 5% (weight/volume) gum arabic, administered at 10 ml per kg of body weight.
Two hours after the administration of the compounds to be tested, the values for analgesic activity are determined. To this purpose, the rats are transferred to the methacrylate chambers of an analgesimeter provided with a glass floor. […]

Experiment [4] concerns PGE2 production. The experiment in a line: PGE2 production in rat inflammatory exudate. Conditions: rats, oral route, carrageenan sponge exudate, read-out: PGE2 Inflam. exudade ED50. On the procedure:
as §1, §2, §3, §4, §5

As for `CC(C)(C)c1cc(C(=O)N2CC(O)C2)cc(C(C)(C)C)c1O` [Example 1, (3,5-di-tert-butyl-4-hydroxy-phenyl)-(3-hydroxy-azetidin-1-yl)-methanone], the ED50 (in general, the dose at which the effect has come halfway, by size or by number of responders) was 0.16 mg/kg with PGE2 production [1], 3 mg/kg in the experiment with rats [2], 0.4 mg/kg in the experiment with rats [3] and 0.28 mg/kg with PGE2 production [4].
For `CC1(O)CN(C(=O)c2cc(C(C)(C)C)c(O)c(C(C)(C)C)c2)C1` [Example 3, (3,5-di-tert-butyl-4-hydroxy-phenyl)-(3-hydroxy-3-methyl-azetidin-1-yl)-methanone], the ED50 in the experiment with PGE2 production [1] worked out at 7.3 mg/kg; in the experiment on rats [2], 58 mg/kg; in the experiment on rats [3], 0.14 mg/kg; in the experiment on PGE2 production [4], 0.5 mg/kg.
Regarding `CC(C)(C)c1cc(CN2CC(O)C2)cc(C(C)(C)C)c1O` [Example 17, 1-(3,5-di-tert-butyl-4-hydroxy-benzyl)-azetidin-3-ol], the ED50 with rats [2] was 62 mg/kg.
